Measured values from ChEMBL document CHEMBL4373717, “Coumarin-containing hybrids and their anticancer activities” (Eur J Med Chem, 2019).

Experiments:
[1] = tested on: MCF7; experiment: Cytotoxicity against human MCF7 cells assessed as reduction in cell viability; type: functional, cell-based
[2] = tested on: Ishikawa; experiment: Cytotoxicity against human Ishikawa cells assessed as reduction in cell viability; type: functional, cell-based
[3] = tested on: MDA-MB-231; experiment: Cytotoxicity against human MDA-MB-231 cells assessed as reduction in cell viability; type: functional, cell-based
[4] = tested on: DLD-1; experiment: Cytotoxicity against human DLD1 cells assessed as reduction in cell viability; type: functional, cell-based
[5] = biological target: Vascular endothelial growth factor receptor 2 (Homo sapiens, UniProt P35968); experiment: Inhibition of VEGFR2 (unknown origin)
Sequence of Vascular endothelial growth factor receptor 2 (P35968 whole entry): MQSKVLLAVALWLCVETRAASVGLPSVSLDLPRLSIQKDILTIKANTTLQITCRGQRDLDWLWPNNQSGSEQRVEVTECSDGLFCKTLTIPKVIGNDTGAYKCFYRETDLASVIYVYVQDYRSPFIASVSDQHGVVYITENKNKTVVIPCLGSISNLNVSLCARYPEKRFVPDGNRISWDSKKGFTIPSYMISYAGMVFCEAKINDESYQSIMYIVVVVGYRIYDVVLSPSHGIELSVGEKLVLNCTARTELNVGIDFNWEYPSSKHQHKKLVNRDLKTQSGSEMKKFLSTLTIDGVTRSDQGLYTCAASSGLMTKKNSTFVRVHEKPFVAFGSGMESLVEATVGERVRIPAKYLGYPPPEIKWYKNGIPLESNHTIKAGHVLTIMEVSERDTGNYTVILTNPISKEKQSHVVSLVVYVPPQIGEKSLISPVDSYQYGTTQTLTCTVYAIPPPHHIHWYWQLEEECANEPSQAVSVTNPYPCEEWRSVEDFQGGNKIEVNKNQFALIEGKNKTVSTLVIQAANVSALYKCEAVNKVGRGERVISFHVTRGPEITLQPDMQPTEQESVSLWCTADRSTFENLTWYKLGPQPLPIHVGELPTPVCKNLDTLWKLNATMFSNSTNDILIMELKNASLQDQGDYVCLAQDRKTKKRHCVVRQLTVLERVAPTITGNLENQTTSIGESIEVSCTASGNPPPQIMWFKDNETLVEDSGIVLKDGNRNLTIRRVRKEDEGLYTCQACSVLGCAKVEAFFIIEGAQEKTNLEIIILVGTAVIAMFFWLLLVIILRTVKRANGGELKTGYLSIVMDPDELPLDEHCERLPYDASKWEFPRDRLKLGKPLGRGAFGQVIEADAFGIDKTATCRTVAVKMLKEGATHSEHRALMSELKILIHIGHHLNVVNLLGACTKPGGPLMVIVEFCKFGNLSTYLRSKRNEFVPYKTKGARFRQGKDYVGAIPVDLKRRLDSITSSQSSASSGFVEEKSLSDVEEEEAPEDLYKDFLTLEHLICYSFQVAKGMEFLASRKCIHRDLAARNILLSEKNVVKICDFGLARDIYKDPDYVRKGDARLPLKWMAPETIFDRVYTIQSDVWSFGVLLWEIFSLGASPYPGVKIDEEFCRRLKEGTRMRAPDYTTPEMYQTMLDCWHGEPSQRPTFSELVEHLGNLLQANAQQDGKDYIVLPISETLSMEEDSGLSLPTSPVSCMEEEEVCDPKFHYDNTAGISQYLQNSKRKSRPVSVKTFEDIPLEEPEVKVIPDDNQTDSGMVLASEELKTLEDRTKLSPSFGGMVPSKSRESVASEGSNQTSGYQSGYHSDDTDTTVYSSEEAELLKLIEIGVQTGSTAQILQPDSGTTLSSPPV

[6] = tested on: MDA-MB-231; experiment: Growth inhibition of human MDA-MB-231 cells relative to control; type: functional
[7] = tested on: MCF7; experiment: Growth inhibition of human MCF7 cells relative to control; type: functional
[8] = tested on: Ishikawa; experiment: Growth inhibition of human Ishikawa cells relative to control; type: functional
[9] = tested on: MCF7; experiment: Potency index, ratio of methotrexate IC50 to compound IC50 for cytotoxicity against human MCF7 cells assessed as reduction in cell viability; type: functional
[10] = tested on: MCF7; experiment: Cytotoxicity against human MCF7 cells assessed as reduction in cell viability by MTT assay; type: functional, cell-based; conditions: for IC50: Homo sapiens, MCF7
[11] = tested on: COS-7; experiment: Cytotoxicity against African green monkey COS7 cells assessed as reduction in cell viability by MTT assay; type: functional, cell-based; conditions: Chlorocebus aethiops
[12] = tested on: HeLa; experiment: Cytotoxicity against human HeLa cells assessed as reduction in cell viability by MTT assay; type: functional, cell-based
[13] = Toxicity in mouse assessed as mouse survival (reference value: 14.5 days); conditions: in vivo, 348 h
[14] = tested on: PANC-1; experiment: Cytotoxicity against human PANC1 cells assessed as reduction in cell viability by MTT assay; type: functional, cell-based
[15] = tested on: HepG2; experiment: Cytotoxicity against human HepG2 cells assessed as reduction in cell viability by MTT assay; type: functional, cell-based
[16] = tested on: A549; experiment: Cytotoxicity against human A549 cells assessed as reduction in cell viability by MTT assay; type: functional, cell-based
[17] = tested on: HepG2; experiment: Anticancer activity against human HepG2 cells by MTT assay; type: functional, cell-based
[18] = tested on: HepG2; experiment: Potency index, ratio of doxorubicin IC50 to compound IC50 for anticancer activity against human HepG2 cells by MTT assay; type: functional
[19] = tested on: HCT-116; experiment: Anticancer activity against human HCT116 cells; type: functional, cell-based
[20] = tested on: HT-29; experiment: Cytotoxicity against human HT-29 cells assessed as reduction in cell viability by MTT assay; type: functional, cell-based
[21] = tested on: PC-3; experiment: Cytotoxicity against human PC3 cells assessed as reduction in cell viability by MTT assay; type: functional, cell-based
[22] = tested on: HepG2; experiment: Anticancer activity against human HepG2 cells by CCK8 assay; type: functional, cell-based
[23] = tested on: OVCAR-3; experiment: Anticancer activity against human OVCAR3 cells by CCK8 assay; type: functional, cell-based
[24] = tested on: A2780; experiment: Anticancer activity against human A2780 cells by CCK8 assay; type: functional, cell-based
[25] = tested on: Hep 3B2; experiment: Anticancer activity against human Hep3B cells by CCK8 assay; type: functional, cell-based
[26] = tested on: L02; experiment: Cytotoxicity against human L02 cells assessed as reduction in cell viability after 24 hrs by MTT assay; type: cell-based; conditions: L02, 24 h
[27] = tested on: A549; experiment: Cytotoxicity against human A549 cells assessed as reduction in cell viability after 24 hrs by MTT assay; type: functional, cell-based; conditions: A549, 24 h
[28] = tested on: HeLa; experiment: Cytotoxicity against human HeLa cells assessed as reduction in cell viability after 24 hrs by MTT assay; type: functional, cell-based
[29] = tested on: HEK-293T; experiment: Cytotoxicity against HEK293T cells assessed as reduction in cell viability after 24 hrs by MTT assay; type: cell-based; conditions: Homo sapiens
[30] = tested on: MCF7; experiment: Cytotoxicity against human MCF7 cells assessed as reduction in cell viability after 24 hrs by MTT assay; type: functional, cell-based; conditions: MCF7, 24 h
[31] = tested on: MDA-MB-231; experiment: Cytotoxicity against human MDA-MB-231 cells assessed as reduction in cell viability after 24 hrs by MTT assay; type: functional, cell-based; conditions: Homo sapiens, MDA-MB-231, 24 h

## CCOC(=O)c1cc2cc(-c3nc4cc(C)ccn4c3NC(C)(C)C)cc(C(C)C)c2oc1=O
[1]
  IC50: 14.1 to 50 µM
[2]
  IC50: 14.1 to 50 µM
[3]
  IC50: 14.1 to 50 µM

## CN(C)c1ccc(C2CC(c3c(O)c4ccccc4oc3=O)=NN2c2nc(-c3ccccc3)c(/N=N/c3ccc(Cl)cc3)s2)cc1 (stereo unspecified)
[4]
  IC50: 114 to 129 µM
[1]
  IC50: 5.41 to 6.56 µM
[5]
  IC50: 5.41 µM

## Cc1cc(=O)oc2cc(Oc3nc(-c4cccs4)cn4c(-c5cccs5)cnc34)ccc12
[6]
  growth inhibition (GI): 10.57 - 92.29%
[7]
  growth inhibition (GI): 10.57 - 92.29%
[8]
  growth inhibition (GI): 10.57 - 92.29%

## COC(=O)c1cc2cc(-c3nc4cc(C)ccn4c3NC(C)(C)C)cc(C(C)C)c2oc1=O
[1]
  IC50: 14.1 to 42.6 µM
[2]
  IC50: 14.1 to 42.6 µM
[3]
  IC50: 14.1 to 42.6 µM

## CCN(C)S(=O)(=O)c1ccc(/C(C)=N/NC(=O)c2cc(=O)oc3ccccc23)cc1
[9]
  Ratio IC50: 10.7
[10]
  IC50: 2.53 µM

## O=c1oc2ccccc2cc1-c1csc(N/N=C/c2c3ccccc3c(Cl)c3ccccc23)n1
[11]
  IC50: 1.29 to 1.96 µM
[1]
  IC50: 1.29 to 1.96 µM
[12]
  IC50: 1.29 to 1.96 µM
[13]
  Survival: 45.5 days

## O=c1oc2ccccc2cc1-c1csc(N/N=C/c2cc([N+](=O)[O-])ccc2Cl)n1
[11]
  IC50: 1.29 to 1.96 µM
[1]
  IC50: 1.29 to 1.96 µM
[12]
  IC50: 1.29 to 1.96 µM
[13]
  Survival: 39.3 days

## COc1cc(Cl)ccc1NS(=O)(=O)c1ccc2oc(=O)ccc2c1
[14]
  IC50: 4.63 to 7.02 µM
[15]; Homo sapiens, HepG2
  IC50: 4.63 to 7.02 µM
[16]
  IC50: 4.63 to 7.02 µM

## O=c1ccc2ccc(OCCn3cc(COc4ccc5ccc(=O)oc5c4)nn3)cc2o1
[17]
  IC50: 0.383 µM
[18]
  Ratio IC50: 2.1

## NS(=O)(=O)c1ccc(Nc2nn3c(Cc4cc(=O)oc5ccccc45)nnc3s2)cc1
[19]
  IC50: 2.66 µM

## COc1ccc2oc(=O)c(/C=C3\SC(=O)N(C(=O)c4ccc(Cl)cc4)C3=O)cc2c1
[20]
  IC50: 0.95 to 3.2 µM
[10]
  IC50: 0.95 to 3.2 µM
[12]
  IC50: 0.95 to 3.2 µM
[16]
  IC50: 0.95 to 3.2 µM
[21]
  IC50: 0.95 to 3.2 µM

## O=c1ccc2ccccc2o1 [COUMARIN]
[22]
  IC50: > 100 µM
[23]
  IC50: > 100 µM
[24]
  IC50: > 100 µM
[25]
  IC50: > 100 µM

## O=c1[nH]cc(F)c(=O)[nH]1 [FLUOROURACIL]
[15]
  growth inhibition (GI): 11.55 - 95.52%
[10]
  growth inhibition (GI): 11.55 - 95.52%
[13]
  Survival: 49 days

## CC(C)=CC[C@@H](O)C1=CC(=O)c2c(O)ccc(O)c2C1=O [SHIKONIN]
[26]
  IC50: 6.22 µM
[27]
  IC50: 6.5 to 10.4 µM
[28]
  IC50: 6.5 to 10.4 µM
[29]
  IC50: 1.52 µM
[30]
  IC50: 6.5 to 10.4 µM
[31]
  IC50: 6.5 to 10.4 µM
